The source of these data is patent publication US8461360B2, “Process for producing γ -mangostin” (Laila Nutraceuticals, priority 2008, dated 2013).

The nature of assay [1]: Superoxide radical scavenging activity (NBT method). The following applies: riboflavin/NBT, 560 nm. In kind it is biochemical. On the procedure: Superoxide radical scavenging activity of test substances was determined by the method of McCord and Fridovich (J. Biol. Chem., 244, 6049, 1969). The assay mixture contained EDTA (6.6 mM containing 3 μg NaCN), riboflavin (2 μM), NBT (50 μM), phosphate buffer (67 mM, pH 7.8) in a final volume of 3 mL and various concentrations of test substances. The tubes were mixed well and optical densities were measured at 560 nm. The tubes were uniformly illuminated with an incandescent lamp for 15 min. and the optical densities were measured again at 560 nm. The percentage inhibition of superoxide radical generation was measured by comparing the absorbance values of control and those of the test substances. The IC50 values were obtained from the plot drawn of the concentration (μg) verses percentage inhibition.

Assay [2] is described as follows: DPPH free radical scavenging activity. In kind it is biochemical. Conditions: methanolic DPPH solution. Here is the method: DPPH free radical scavenging activity was measured by the method of Lamaison, et al., (Pharma Acta Helv. 1991; 66:185) based on the reduction of colored methanolic solution of the DPPH. Free radical scavenging ability of each test substances added to the methanolic solution of DPPH was inversely proportional to the difference in initial and final absorption of DPPH solution at […] Antioxidant activity is expressed as the 50% inhibitory concentration (IC50). The reaction mixture contained 1×10^−4 mM methanolic solution of DPPH and various concentrations of the test substances. Percentage inhibition was determined by comparing the absorbance values of test and control tubes. The IC50 values were obtained from the plot drawn of the concentration (μg) verses percentage inhibition.
On the technique in general: Loss of DPPH colour is used to gauge radical scavenging.

The target in another assay is potato 5-lipoxygenase. The assay is described as follows: 5-Lipoxygenase enzyme inhibitory activity. The assay is classed as biochemical. Conditions: 80 μM linoleic acid, pH 6.3, absorbance 234 nm. On the procedure:
5-Lipoxygenase enzyme inhibitory activity was measured using the method of Schewe, et. al. (Adv Enzymol, Vol 58: pp 191-272, 1986), that was modified by Reddanna, et. al., (Methods of Enzymology, Vol 187: pp 268-277, 1990). The assay mixture contained 80 μM linoleic acid and sufficient amount of potato 5-lipoxygenase in 50 mM phosphate buffer (pH 6.3). The reaction was initiated by the addition of enzyme buffer mix to linoleic acid and the enzyme activity was monitored as the increase in absorbance at 234 nm. The reaction was monitored for 120 sec and the inhibitory potential of the test substances was measured by incubating various concentrations of test substances α-mangostin and γ-mangostin two minutes before the addition of linoleic acid. All assays were performed three times. The IC50 values were calculated from the plot drawn of the concentrations of test substances versus percentage inhibition.

Assay [3] relates to aP2 (Adipocyte fatty acid binding protein). The assay is described as follows: Down-regulation of aP2 protein expression in LPS induced THP-1 derived macrophages (Western blot). In kind it is cell-based, human. The following applies: 5 μg/ml pre-treatment 2 h, LPS 100 ng/ml 16 h, normalized with actin. Here is the method:
Down-regulation of aP2 protein expression by γ-mangostin and α-mangostin was evaluated in a cell based in vitro model. Briefly, equal number of THP-1 monocyte cells were plated in 40 mm tissue culture petri-dishes and the cells were differentiated to macrophages by treatment with 10 nM Phorbol myristate acetate (PMA) for 24 h. The attached cells in the culture dishes were washed with serum free and phenol red free DMEM; and the differentiated macrophage cells were pre-treated for 2 h with 5 μg/ml of either γ-mangostin or α-mangostin or 0.1% DMSO in serum free DMEM supplemented with 2% BSA. Thereafter, the cells were primed with 100 ng/ml of LPS for 16 h to induce the inflammatory response. The 0.1% DMSO treated cells without LPS treatment were considered as vehicle control. […] The protein content was measured by Coomassie blue based Bradford method and equal amount of cellular protein lysates (2 μg) was resolved in 15% SDS-Polyacrylamide gels. […] The aP2 protein expression was specifically detected by chemiluminescent substrate (Pierce, USA); detection of chemiluminescent bands and densitometric analyses were carried out on Kodak 4000 MM image station (supplied by Kodak, USA). The same nitrocellulose blots were stripped and re-probed with anti-actin antibody (Sigma Chemical CO, USA) and actin protein expression was recorded as an indication of equal protein loading in each, lane. […]
(In general: In western blotting, separated proteins are transferred to a membrane and probed.)

In assay [4] the test system is Freund Complete Adjuvant induced arthritis. The assay is described as follows: Freund Complete Adjuvant induced arthritis model, paw edema. In kind it is in vivo, Sprague Dawley rats. Conditions: prednisolone 10 mg/kg body weight for 14 days, positive control; vs CMC control. Here is the method:
The anti-inflammatory efficacies of α-mangostin and γ-mangostin were evaluated by an in vivo study in Freund Complete Adjuvant induced arthritis model of Sprague Dawley rats. The rats of either sex were randomly selected and divided into […] containing five animals in each group. The treatment group rats were supplemented with 25 mg/kg body weight of α-mangostin or γ-mangostin, or prednisolone (10 mg/kg body weight) for 14 days. The animals of control group received similar volume of 1% CMC only. At the 14 th day, Freund Complete Adjuvant (FCA) was injected subcutaneously in the sub-plantar region of the left hind paw of each animal. At the end of experiment, the animals were sacrificed and liver tissue samples were excised and stored in aliquot at −80° C. Blood samples were collected from each animal at a regular interval and paw volumes were measured by Plethysmography equipment at the day of FCA injection and after 13 days of FCA inoculation. The difference in volume of edema at the day of FCA injection and at 13th day after induction is considered as the inflammatory response. The in vivo anti-inflammatory response of α-mangostin, γ-mangostin and prednisolone was estimated by calculating the percentage of inhibition of paw edema when compared with the CMC supplemented control.

Another assay has as its system IKK. The following applies: Biochem. Pharmacol. reference; cited from earlier work.

With `O=C1O[C@H]([C@@H](O)CO)C(O)=C1O` [Vitamin C], the “NBT method IC50” value in assay [1] came out at 123.6 µg/mL. Also, the “DPPH method IC50” value in assay [2] amounted to 3.7 µg/mL.

As to `COc1c(O)cc2oc3cc(O)c(CC=C(C)C)c(O)c3c(=O)c2c1CC=C(C)C` [α-Mangostin, 1,3,6-trihydroxy-7-methoxy-2,8-bis-(3-methyl-but-2-only) -xanthen-9-one], the “NBT method IC50” value in assay [1] was 61.8 µg/mL. Besides, the “5-Lipoxygenase inhibitory activity IC50 values” on potato 5-lipoxygenase is 2.7 µg/mL. In assay [2], the “DPPH method IC50” value was above 100 µg/mL. For the same molecule, the “inhibition of aP2 protein expression” value in assay [3] was “inhibition of aP2 protein expression”.

Consider `C[C@]12C=CC(=O)C=C1CC[C@@H]1[C@@H]2[C@@H](O)C[C@@]2(C)[C@H]1CC[C@]2(O)C(=O)CO` [prednisolone], for which the “inhibition of paw edema” value in assay [4] turned out to be 54%.

In the case of `CC(C)=CCc1c(O)cc2oc3cc(O)c(O)c(CC=C(C)C)c3c(=O)c2c1O` [γ-Mangostin, 2,8-bis[(2E)-3-methylbut-2-only)-1,3,6,7-tetrahydroxyxanthen-9-one], in the assay with IKK, the “inhibition of IKK activity” value is listed as “directly inhibits IKK activity”. For the same molecule, the “NBT method IC50” value in assay [1] came out at 8.7 µg/mL. For the same molecule, the “5-Lipoxygenase inhibitory activity IC50 values” at potato 5-lipoxygenase was found to be 0.5 µg/mL. Moreover, the “DPPH method IC50” value in assay [2] was found to be 9.7 µg/mL. Further, in assay [3], the “inhibition of aP2 protein expression” value is recorded as “more potent inhibitor of aP2 in vitro compared to α-mangostin”.
